In the assay the test system is Human TNBC cell line HCC1187. The assay is described as follows: In vivo efficacy study, tumor growth delay of subcutaneous HCC1187 xenograft. Set-up: species or system NSG mice. The following applies: for TGD compared to control (group a): endpoint ten times the initial volume (1000%), difference of MTTE versus control. The source says: Cultured cells were harvested, washed and counted. One million cells per mouse were subcutaneously transplanted into NSG mice. Animals were monitored for tumor growth. Once average tumor volume reached between 50-130 mm^3, animals were randomized for treatment with 6-(4-Tert-Butylphenoxy)Pyridin-3-Amine , Paclitaxel as single agent and 6-(4-Tert-Butylphenoxy)Pyridin-3-Amine + Paclitaxel combination. The treatment regimen was implemented as below: • a) Vehicle • b) 6-(4-Tert-Butylphenoxy)Pyridin-3-Amine single agent for 2 weeks • c) Paclitaxel single agent for 2 weeks and then monitor tumor growth without further treatment • d) 6-(4-Tert-Butylphenoxy)Pyridin-3-Amine + Paclitaxel combination for 2 weeks and then monitor tumor growth without further treatment • e) 6-(4-Tert-Butylphenoxy)Pyridin-3-Amine + Paclitaxel combination for 2 weeks and then continue treatment with 6-(4-Tert-Butylphenoxy)Pyridin-3-Amine alone as single agent and monitor tumor growth.
Tumor dimensions (L=length, W=width) were measured using a digital caliper. Tumor volume was calculated with the following formula: L^∗W^∗W/2. Tumor growth is followed as percentage of initial volume. Median Time To Endpoint (MTTE) was measured in days for an individual group to reach 1000% (10 times) the initial volume as end point. Tumor Growth Delay (TGD) was calculated as difference in days between MTTE of control and treatment groups.

As for `CC(C)(C)c1ccc(Oc2ccc(N)cn2)cc1` [6-(4-Tert-Butylphenoxy)Pyridin-3-Amine], the “TGD compared to control (group a)” value (group b: single agent for 2 weeks) is listed as 3 days. Further, under “single agent alone, HCC1187 xenograft”, the “efficacy (in words)” value was “only modest efficacy”.

For `CC(=O)O[C@H]1C(=O)[C@@]2(C)[C@H]([C@H](OC(=O)c3ccccc3)[C@]3(O)C[C@H](OC(=O)[C@H](O)[C@@H](NC(=O)c4ccccc4)c4ccccc4)C(C)=C1C3(C)C)[C@]1(OC(C)=O)CO[C@@H]1C[C@@H]2O` [Paclitaxel, reference compound], the “TGD compared to control (group a)” value (groups c, d: treatment for 2 weeks, then no treatment) is listed as 21 days.

Source of the values: EP4223292A1, “PHARMACEUTICAL COMBINATIONS FOR TREATING CANCER” (Cellestia Biotech AG, priority 2022, dated 2023).
